# Results: patent publication EP2316926B1, “Enantioselective production of alpha-hydroxy carbonyl compounds” (priority 2009, dated 2011)
# “And” between values parts separate entries of the source, which are not always exact repeats. Identical values can stand only once. Like-named read-outs stand apart in the source and are kept apart here.
# Experiments:
# Assay type in all cases: biochemical
# Gox0644 [1] = target: T1, Gox0644 (Gluconobacter oxydans, UniProt Q5FT75); assay: NADPH-dependent α-ketocarbonyl reductase activity assay (rate of decrease of NADPH at 340 nm); conditions: for Specific Activity (U/mg)*: Table 4, cofactor NADPH, U/mg = µmol/mg·min; for reduction by Gox0644: result in words; for Gox0644 U/mg*: Table 3, 10 mM substrate, 40 mM K-phosphate buffer pH 7.0, 0.05 mM NAD(P)H, 30 °C, U/mg = µmol x min^-1 x mg protein^-1
# Method: Reactions were induced by addition of enzyme or substrate. One unit was defined as the amount of enzyme activity catalyzing the conversion of 1 µmol of pyridine nucleotide per min at 30 °C. NMR Analysis of Biotransformation Products: Biotransformations were extracted with equal volumes of CDCl3. and ^13C NMR spectra were recorded on a Bruker Avance 300 DPX spectrometer operating at 300 MHz for ^1H NMR and at 75 MHz for ^13C NMR, respectively.
# Reactions were induced by addition of enzyme or substrate. One unit of activity was defined as the amount of enzyme activity catalyzing the conversion of 1 µmol of pyridine nucleotide per min at 30 °C.
# The standard reaction mixture (1 ml) for the reduction reactions of substrates contained 10 mM substrate, 40 mM potassium phosphate buffer (K-phosphate buffer) pH 7.0, 0.05 mM NAD(P)H, and the enzyme unless otherwise noted. Reactions were induced by addition of enzyme or substrate. One unit of activity was defined as the amount of enzyme activity catalyzing the conversion of 1 µmol of pyridine nucleotide per min at 30 °C. […] Table 3: Enzymatic activities with α-diketones, α-ketoaldehydes and α-ketoesters
# Gox1615 = target: T2, Gox1615 (Gluconobacter oxydans, UniProt Q5FQJ0); assay: as above; conditions: for Specific Activity (U/mg)*: Table 5, cofactor NADPH, U/mg = µmol/mg·min; for Gox1615 U/mg*: Table 3, 10 mM substrate, 40 mM K-phosphate buffer pH 7.0, 0.05 mM NAD(P)H, 30 °C, U/mg = µmol x min^-1 x mg protein^-1
# T2 sequence (Q5FQJ0 1-332): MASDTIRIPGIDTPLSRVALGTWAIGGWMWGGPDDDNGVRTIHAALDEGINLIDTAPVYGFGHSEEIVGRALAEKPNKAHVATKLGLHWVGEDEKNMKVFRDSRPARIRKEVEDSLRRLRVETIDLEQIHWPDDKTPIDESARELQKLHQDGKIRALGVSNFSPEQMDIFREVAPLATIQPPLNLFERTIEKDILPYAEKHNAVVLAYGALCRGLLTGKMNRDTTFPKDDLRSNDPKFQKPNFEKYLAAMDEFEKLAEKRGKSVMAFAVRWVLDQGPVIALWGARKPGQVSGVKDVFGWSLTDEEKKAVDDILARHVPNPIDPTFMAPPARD
# Method: Measurement of enzyme activity: NADPH-dependent α-ketocarbonyl reductases were assayed by a routine method used for NAD(P)-linked enzymes by recording the rate of decrease of NADPH at 340 nm (ε = 6.22 mM^-1 x cm^-1)) with substrates at 30 °C. The reaction mixture (1 ml) for reduction of α-ketocarbonyl substrates contained 10 mM substrate, 40 mM potassium phosphate buffer pH 7.0, 0.025 mM NAD(P)H and the enzyme. Reactions were induced by addition of enzyme or substrate. One unit was defined as the amount of enzyme activity catalyzing the conversion of 1 µmol of pyridine nucleotide per min at 30 °C. NMR Analysis of Biotransformation Products: Biotransformations were extracted with equal volumes of CDCl3. and ^13C NMR spectra were recorded on a Bruker Avance 300 DPX spectrometer operating at 300 MHz for ^1H NMR and at 75 MHz for ^13C NMR, respectively. Spectra were processed using Bruker TonSpin 1.3 for Windows software and calibrated to the residual solvent peak of CDCl3 (δH = 7.26 / δC = 77.0).
# NADPH-dependent α-ketocarbonyl reductases were assayed by a routine method used for NAD(P)-linked enzymes by recording the rate of decrease of NADPH at 340 nm (ε = 6.22 mM^-1.cm^-1) with substrates at 30 °C. The reaction mixture (1 ml) for reduction of α-ketocarbonyl substrates contained 10 mM substrate, 40 mM potassium phosphate buffer pH 7.0, 0.025 mM NADPH, and the enzyme. Reactions were induced by addition of enzyme or substrate. One unit of activity was defined as the amount of enzyme activity catalyzing the conversion of 1 µmol of pyridine nucleotide per min at 30 °C.
# Purified NAD(P)-dependent oxidoreductases were assayed at 30 °C by a routine method used for NAD(P)-linked enzymes by recording the rate of decrease of NAD(P)H at 340 nm (ε = 6.22 mM^-1˙cm^-1) with substrates capable of reduction reactions. The standard reaction mixture (1 ml) for the reduction reactions of substrates contained 10 mM substrate, 40 mM potassium phosphate buffer (K-phosphate buffer) pH 7.0, 0.05 mM NAD(P)H, and the enzyme unless otherwise noted. Reactions were induced by addition of enzyme or substrate. One unit of activity was defined as the amount of enzyme activity catalyzing the conversion of 1 µmol of pyridine nucleotide per min at 30 °C. Measurement of the protein content was performed by the method of Bradford (Bradford M.M., Anal. Biochem. 72:248-254 (1976)). Table 3: Enzymatic activities with α-diketones, α-ketoaldehydes and α-ketoesters
# Gox1122 = target: T3, Gox1122 (Gluconobacter oxydans, UniProt Q5FRV6); assay: Aldehyde dehydrogenase activity and kinetic constants
# T3 sequence (Q5FRV6 1-463): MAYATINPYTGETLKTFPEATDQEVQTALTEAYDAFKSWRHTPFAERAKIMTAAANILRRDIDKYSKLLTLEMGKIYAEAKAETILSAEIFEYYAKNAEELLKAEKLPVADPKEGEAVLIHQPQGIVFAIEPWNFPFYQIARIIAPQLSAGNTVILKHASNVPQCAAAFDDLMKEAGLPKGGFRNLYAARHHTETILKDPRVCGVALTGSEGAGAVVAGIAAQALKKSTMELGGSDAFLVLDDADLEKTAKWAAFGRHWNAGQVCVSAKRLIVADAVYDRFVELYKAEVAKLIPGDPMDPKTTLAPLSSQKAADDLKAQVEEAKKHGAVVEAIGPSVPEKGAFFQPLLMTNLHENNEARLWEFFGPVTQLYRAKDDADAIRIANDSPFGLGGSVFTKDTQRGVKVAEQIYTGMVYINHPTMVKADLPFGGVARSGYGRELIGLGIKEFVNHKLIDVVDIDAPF
# Method: The enzyme is used in a combined enzymatic reaction between the NADPH-dependent reductases (see above) that form α-hydroxy carbonyl compounds.
# Determination of pH and temperature optima and enzyme kinetics: The optimum pH for enzyme activities was determined by a modified method of Salusjärvi, T. et al., Appl. Microbiol. Biotechnol. 65:306-314 (2004) using the following buffer system (50 mM final concentration each): sodium acetate pH 4.5 - 6.5, potassium phosphate pH 6.5 - 8.0, Tris-HCl pH 8.0 - 10. Temperature optima for the biocatalysts were determined under standard reaction conditions at temperatures ranging from 20 - 80 °C. The Michaelis constant (Km) for the proteins was determined from purified enzyme by Lineweaver-Burk plots. Assays were performed at optimum pH for each enzyme and at 30 °C using the best substrate and a targeted substrate. The Km for each substrate was calculated using concentrations of 0.0025 to 10 mM, and the Km NAD(P)H and NAD(P) was calculated using concentrations of 0.01 to 0.5 mM
# 2.9 Kinetic parameters of the keto carbonyl reductases: Kinetic constants were determined from purified enzyme by Lineweaver-Burk plots. The Km and Vmax values for the substrates were calculated using concentrations of 0.025 to 10 mM. […] 8.
# Gox0644 [2] = target: T1, Gox0644; assay: Acetaldehyde tolerance test
# Source text: The products derived from the α-diketone and α-ketoaldehyde substrate reactions were generated according to the cofactor regeneration protocol. This method overcomes the dependence of the enzymes on reduced cofactor by coupling the substrate reactions of Gox0644 and Gox1615, with the cofactor NADP reduction reaction based on the acetaldehyde oxidoreductase Gox1122 using acetaldehyde. […] In both the reactions with phenylglyoxal and 2,3-pentanedione, Gox0644 activity remained similar to the control reaction consisting of a reaction without acetaldehyde (Tab. 9/10). […] In the reaction with 2,3-pentanedione there was a slight decrease of about 20% from the control, however, the activity levels were still very high at 50.2 U/mg. […] Table 9: Gox0644 acetaldehyde tolerance tests with phenylglyoxal
smiles,measurement,setting,value
"CC(=O)C(C)=O [2,3-butanedione]",Specific Activity (U/mg)*,Gox0644 [1],60.0 U/mg
same,Specific Activity (U/mg)*,Gox1615,6.0 U/mg
CC(C)=O [acetone],reduction by Gox0644,Gox0644 [1],not reduced
O=CC=O [glyoxal],Specific Activity (U/mg)*,Gox0644 [1],1.1 U/mg
same,Specific Activity (U/mg)*,Gox1615,5 U/mg
"CCCC(=O)C(C)=O [2,3-hexanedione]",Gox0644 U/mg*,Gox0644 [1],50.1 U/mg
same,Gox1615 U/mg*,Gox1615,6.5 U/mg
same,Specific Activity (U/mg)*,Gox1615,6.5 U/mg
CC(=O)O [acetic acid],reverse reduction reaction,"Gox1122; using NADPH, pH range of 4-10",No reverse reduction reaction
"O=C(O)C(=O)[C@@H](O)[C@H](O)C(=O)CO [2,5-diketogluconate]",reduction by Gox0644,Gox0644 [1],reduced
"CCC(=O)C(=O)CC [3,4-hexanedione]",Gox0644 U/mg*,Gox0644 [1],7.3 U/mg
same,Gox1615 U/mg*,Gox1615,2.0 U/mg
same,Specific Activity (U/mg)*,Gox1615,2.0 U/mg
CCOC(=O)C(C)=O [ethyl pyruvate],Gox0644 U/mg*,Gox0644 [1],92.8 U/mg
same,activity,Gox0644 [1]; substrates showing the highest activities,93 U/mg protein
same,Gox1615 U/mg*,Gox1615,1.2 U/mg
same,Specific Activity (U/mg)*,Gox1615,1.2 U/mg
CC(=O)CC(C)=O [acetylacetone],reduction by Gox0644,Gox0644 [1],not reduced
CC=O [acetaldehyde],Vmax,Gox1122; 40 mM KPB at optimal pH and 30 °C,196 µmol/min x mg
same,Km,"Gox1122; 40 mM KPB at optimal pH and 30 °C, read-out: Km",200 µM
same,apparent Vmax value,"Gox1122; fixed 0.5 mM NADP, acetaldehyde as the varied substrate",196 U/mg protein
same,Km,"Gox1122; several concentrations of the aldehyde from 0.0025 to 10 mM, read-out: Km value",255 µM
same,Gox0644 activity,"Gox0644 [2]; substrate 2,3-pentanedione, 10mM acetaldehyde, control without acetaldehyde 65.7 U/mg",67.9 U/mg
same,Gox0644 activity,"Gox0644 [2]; substrate 2,3-pentanedione, 30mM acetaldehyde, control without acetaldehyde 65.7 U/mg",59.5 U/mg
same,Gox0644 activity,"Gox0644 [2]; substrate 2,3-pentanedione, 50mM acetaldehyde, control without acetaldehyde 65.7 U/mg",50.2 U/mg and 50.1 U/mg
same,Gox0644 activity,"Gox0644 [2]; substrate phenylglyoxal, 10mM acetaldehyde, control without acetaldehyde 38.5 U/mg",29.6 U/mg
same,Gox0644 activity,"Gox0644 [2]; substrate phenylglyoxal, 30mM acetaldehyde, control without acetaldehyde 38.5 U/mg",37.1 U/mg
same,Gox0644 activity,"Gox0644 [2]; substrate phenylglyoxal, 50mM acetaldehyde, control without acetaldehyde 38.5 U/mg",39.3 U/mg
same,Gox0644 activity,"Gox0644 [2]; substrate phenylglyoxal, 100mM acetaldehyde, control without acetaldehyde 38.5 U/mg",31.2 U/mg
same,inhibition at 100000 µM,"Gox0644 [2]; substrate phenylglyoxal, 100 mM of acetaldehyde, versus control, read-out: decrease in activity",≤ 20%
CC(=O)C(=O)OCCC(C)C [isoamyl pyruvate],Gox0644 U/mg*,Gox0644 [1],63.1 U/mg
same,Gox1615 U/mg*,Gox1615,4.7 U/mg
same,Specific Activity (U/mg)*,Gox1615,4.7 U/mg
O=C(C(=O)c1ccccc1)c1ccccc1 [benzil],Specific Activity (U/mg)*,Gox0644 [1],14.0 U/mg
NC(=O)c1ccc[n+]([C@@H]2O[C@H](COP(=O)(O)OP(=O)(O)OC[C@H]3O[C@@H](n4cnc5c(N)ncnc54)[C@H](OP(=O)(O)O)[C@@H]3O)[C@@H](O)[C@H]2O)c1 [NADP],Km,"Gox1122; cofactor NADP, read-out: apparent Km value",73 µM
CC(=O)C(C)O (stereo not shown) [acetoin],reduction by Gox0644,Gox0644 [1],not reduced
CCC(=O)C(=O)O [2-oxo butyric acid],reduction by Gox0644,Gox0644 [1],not reduced
